Results on seven cell lines are retold here after the supplement of paper PMC10307832.

What all share (assay): relative viability (nuclei count vs DMSO), 5 days (fraction); higher = more cells survive
Compound in the experiment “BI-D1870 + Pemetrexed”: CC(C)CCN1c2nc(Nc3cc(F)c(O)c(F)c3)ncc2N(C)C(=O)C1C [BI-D1870] + Nc1nc2[nH]cc(CCc3ccc(C(=O)N[C@@H](CCC(=O)O)C(=O)O)cc3)c2c(=O)[nH]1 [Pemetrexed] (partner 0.2 µM)
The essentials:
(§1)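 After 5 days of treatment, lung cancer cells in 1536-well plates were fixed and stained in a single step (final 0.05% Triton X-100, 1% formaldehyde, 1 ug/ml Hoechst) and their nuclei counted on 4× images. Treatment had been applied by pin tool the day after seeding as one drug alone or as a fixed anchor-drug dose with five library-drug doses (not always all listed) in √10 steps. Relative viability is the nuclei count of treated wells divided by that of vehicle wells, and values are medians of duplicate plates.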

Compound in the experiment “Zebularine + Lapatinib”: O=c1ncccn1[C@@H]1O[C@H](CO)[C@@H](O)[C@H]1O [Zebularine] + CS(=O)(=O)CCNCc1ccc(-c2ccc3ncnc(Nc4ccc(OCc5cccc(F)c5)c(Cl)c4)c3c2)o1 [Lapatinib] (partner 2 µM)
Put shortly: as §1

Compound in the experiment “BI-D1870 + Linsitinib”: CC(C)CCN1c2nc(Nc3cc(F)c(O)c(F)c3)ncc2N(C)C(=O)C1C [BI-D1870] + C[C@]1(O)C[C@@H](c2nc(-c3ccc4ccc(-c5ccccc5)nc4c3)c3c(N)nccn32)C1 [Linsitinib] (partner 1 µM)
Put shortly: as §1

Compound in the experiment “BI-D1870 + Dasatinib”: CC(C)CCN1c2nc(Nc3cc(F)c(O)c(F)c3)ncc2N(C)C(=O)C1C [BI-D1870] + Cc1nc(Nc2ncc(C(=O)Nc3c(C)cccc3Cl)s2)cc(N2CCN(CCO)CC2)n1 [Dasatinib] (partner 0.075 µM)
Put shortly:
as §1

In the case of NCI-H1648, the relative viability with BI-D1870 + Pemetrexed (first compound 0.04 µM) amounted to 0.619; with BI-D1870 + Pemetrexed (first compound 0.1265 µM), 0.588; in the experiment with BI-D1870 + Pemetrexed (first compound 1.265 µM), 0.802; with BI-D1870 + Pemetrexed (first compound 4 µM), 0.661.

With SK-MES-1, the relative viability with Zebularine + Lapatinib (first compound 1 µM) worked out at 0.484; with Zebularine + Lapatinib (first compound 3.162 µM), 0.435; with Zebularine + Lapatinib (first compound 10 µM) it was 0.397; in the experiment with Zebularine + Lapatinib (first compound 31.62 µM), 0.427; with Zebularine + Lapatinib (first compound 100 µM) it was 0.269; with BI-D1870 + Linsitinib (first compound 0.04 µM), 1.06. Moreover, the relative viability in the experiment with BI-D1870 + Linsitinib (first compound 0.1265 µM) was 1.05; with BI-D1870 + Linsitinib (first compound 0.4 µM) it was 1.02; in the experiment with BI-D1870 + Linsitinib (first compound 1.265 µM), 0.902; in the experiment with BI-D1870 + Linsitinib (first compound 4 µM), 0.705; with BI-D1870 + Pemetrexed (first compound 0.04 µM) it was 0.992; in the experiment with BI-D1870 + Pemetrexed (first compound 0.1265 µM) it was 0.874. Further, the relative viability with BI-D1870 + Pemetrexed (first compound 0.4 µM) was found to be 0.895; with BI-D1870 + Pemetrexed (first compound 1.265 µM), 0.716; with BI-D1870 + Pemetrexed (first compound 4 µM), 0.622; with BI-D1870 + Dasatinib (first compound 0.04 µM) it was 0.44; with BI-D1870 + Dasatinib (first compound 0.1265 µM) it was 0.369; with BI-D1870 + Dasatinib (first compound 0.4 µM), 0.323. Moreover, the relative viability in the experiment with BI-D1870 + Dasatinib (first compound 1.265 µM) came to 0.362; in the experiment with BI-D1870 + Dasatinib (first compound 4 µM), 0.3.

Take HCC-366: the relative viability with Zebularine + Lapatinib (first compound 1 µM) was determined as 1.22; in the experiment with Zebularine + Lapatinib (first compound 3.162 µM), 0.984; with Zebularine + Lapatinib (first compound 10 µM), 0.329; in the experiment with Zebularine + Lapatinib (first compound 31.62 µM), 0.749; in the experiment with Zebularine + Lapatinib (first compound 100 µM) it was 0.0986; with BI-D1870 + Linsitinib (first compound 0.04 µM) it was 0.919. Further, the relative viability with BI-D1870 + Linsitinib (first compound 0.1265 µM) was 0.538; in the experiment with BI-D1870 + Linsitinib (first compound 0.4 µM) it was 0.53; with BI-D1870 + Linsitinib (first compound 1.265 µM) it was 0.763; in the experiment with BI-D1870 + Linsitinib (first compound 4 µM), 0.623; in the experiment with BI-D1870 + Pemetrexed (first compound 0.04 µM), 0.148; with BI-D1870 + Pemetrexed (first compound 0.1265 µM), 0.174. Also, the relative viability with BI-D1870 + Pemetrexed (first compound 0.4 µM) amounted to 0.215; with BI-D1870 + Pemetrexed (first compound 1.265 µM) it was 0.176; in the experiment with BI-D1870 + Pemetrexed (first compound 4 µM), 0.118; with BI-D1870 + Dasatinib (first compound 0.04 µM), 0.633; in the experiment with BI-D1870 + Dasatinib (first compound 0.1265 µM), 0.528; in the experiment with BI-D1870 + Dasatinib (first compound 0.4 µM), 0.603. Moreover, the relative viability with BI-D1870 + Dasatinib (first compound 1.265 µM) is 0.731; in the experiment with BI-D1870 + Dasatinib (first compound 4 µM), 0.427.

In the case of 201T, the relative viability came to 1.05 with Zebularine + Lapatinib (first compound 1 µM); 1.09 with Zebularine + Lapatinib (first compound 3.162 µM); 0.902 in the experiment with Zebularine + Lapatinib (first compound 10 µM); 1.06 in the experiment with Zebularine + Lapatinib (first compound 31.62 µM); 1.11 with Zebularine + Lapatinib (first compound 100 µM); 1.05 with BI-D1870 + Linsitinib (first compound 0.04 µM). In addition, the relative viability came out at 1.09 with BI-D1870 + Linsitinib (first compound 0.1265 µM); 1.06 in the experiment with BI-D1870 + Linsitinib (first compound 0.4 µM); 1.04 in the experiment with BI-D1870 + Linsitinib (first compound 1.265 µM); 1.07 with BI-D1870 + Linsitinib (first compound 4 µM); 0.319 with BI-D1870 + Pemetrexed (first compound 0.04 µM); 0.308 with BI-D1870 + Pemetrexed (first compound 0.1265 µM). In addition, the relative viability with BI-D1870 + Pemetrexed (first compound 0.4 µM) was determined as 0.307; in the experiment with BI-D1870 + Pemetrexed (first compound 1.265 µM) it was 0.344; with BI-D1870 + Pemetrexed (first compound 4 µM) it was 0.316; with BI-D1870 + Dasatinib (first compound 0.04 µM) it was 0.59; with BI-D1870 + Dasatinib (first compound 0.1265 µM), 0.569; with BI-D1870 + Dasatinib (first compound 0.4 µM), 0.571. Besides, the relative viability in the experiment with BI-D1870 + Dasatinib (first compound 1.265 µM) is 0.548; with BI-D1870 + Dasatinib (first compound 4 µM), 0.544.

As for HCC-827, the relative viability with Zebularine + Lapatinib (first compound 1 µM) amounted to 0.209; with Zebularine + Lapatinib (first compound 3.162 µM), 0.175; in the experiment with Zebularine + Lapatinib (first compound 10 µM), 0.192; in the experiment with Zebularine + Lapatinib (first compound 31.62 µM), 0.188; with Zebularine + Lapatinib (first compound 100 µM) it was 0.191; in the experiment with BI-D1870 + Linsitinib (first compound 0.04 µM), 0.992. Besides, the relative viability stood at 0.959 with BI-D1870 + Linsitinib (first compound 0.1265 µM); 0.982 in the experiment with BI-D1870 + Linsitinib (first compound 0.4 µM); 0.977 with BI-D1870 + Linsitinib (first compound 1.265 µM); 0.895 with BI-D1870 + Linsitinib (first compound 4 µM); 0.184 with BI-D1870 + Pemetrexed (first compound 0.04 µM); 0.31 in the experiment with BI-D1870 + Pemetrexed (first compound 0.1265 µM). Besides, the relative viability with BI-D1870 + Pemetrexed (first compound 0.4 µM) was 0.241; in the experiment with BI-D1870 + Pemetrexed (first compound 1.265 µM), 0.254; in the experiment with BI-D1870 + Pemetrexed (first compound 4 µM), 0.141; in the experiment with BI-D1870 + Dasatinib (first compound 0.04 µM) it was 0.383; with BI-D1870 + Dasatinib (first compound 0.1265 µM), 0.373; with BI-D1870 + Dasatinib (first compound 0.4 µM) it was 0.321. In addition, the relative viability with BI-D1870 + Dasatinib (first compound 1.265 µM) came to 0.412; with BI-D1870 + Dasatinib (first compound 4 µM), 0.26.

As to NCI-H647, the relative viability with Zebularine + Lapatinib (first compound 1 µM) is 1.35; in the experiment with Zebularine + Lapatinib (first compound 3.162 µM), 1.03; with Zebularine + Lapatinib (first compound 10 µM), 0.227; in the experiment with Zebularine + Lapatinib (first compound 31.62 µM), 0.212; in the experiment with Zebularine + Lapatinib (first compound 100 µM), 0.14; with BI-D1870 + Linsitinib (first compound 0.04 µM) it was 1.14. Besides, the relative viability amounted to 1.2 with BI-D1870 + Linsitinib (first compound 0.1265 µM); 1.26 with BI-D1870 + Linsitinib (first compound 0.4 µM); 1.22 in the experiment with BI-D1870 + Linsitinib (first compound 1.265 µM); 0.871 with BI-D1870 + Linsitinib (first compound 4 µM); 0.155 in the experiment with BI-D1870 + Pemetrexed (first compound 0.04 µM); 0.162 with BI-D1870 + Pemetrexed (first compound 0.1265 µM). Besides, the relative viability is 0.192 in the experiment with BI-D1870 + Pemetrexed (first compound 0.4 µM); 0.218 with BI-D1870 + Pemetrexed (first compound 1.265 µM); 0.127 in the experiment with BI-D1870 + Pemetrexed (first compound 4 µM); 0.184 in the experiment with BI-D1870 + Dasatinib (first compound 0.04 µM); 0.113 in the experiment with BI-D1870 + Dasatinib (first compound 0.1265 µM); 0.243 with BI-D1870 + Dasatinib (first compound 0.4 µM). Also, the relative viability stood at 0.23 with BI-D1870 + Dasatinib (first compound 1.265 µM) and 0.208 with BI-D1870 + Dasatinib (first compound 4 µM).

Consider NCI-H2023, for which the relative viability with Zebularine + Lapatinib (first compound 1 µM) was 1.03; with Zebularine + Lapatinib (first compound 3.162 µM) it was 0.686; in the experiment with Zebularine + Lapatinib (first compound 10 µM) it was 0.786; in the experiment with Zebularine + Lapatinib (first compound 31.62 µM) it was 0.717; in the experiment with Zebularine + Lapatinib (first compound 100 µM), 0.292; with BI-D1870 + Linsitinib (first compound 0.04 µM) it was 0.72. Further, the relative viability is 0.507 with BI-D1870 + Linsitinib (first compound 0.1265 µM); 0.569 with BI-D1870 + Linsitinib (first compound 0.4 µM); 0.605 with BI-D1870 + Linsitinib (first compound 1.265 µM); 0.543 with BI-D1870 + Linsitinib (first compound 4 µM); 0.24 with BI-D1870 + Pemetrexed (first compound 0.04 µM); 0.255 in the experiment with BI-D1870 + Pemetrexed (first compound 0.1265 µM). For the same cell line, the relative viability with BI-D1870 + Pemetrexed (first compound 0.4 µM) turned out to be 0.288; in the experiment with BI-D1870 + Pemetrexed (first compound 1.265 µM) it was 0.255; with BI-D1870 + Pemetrexed (first compound 4 µM), 0.149; in the experiment with BI-D1870 + Dasatinib (first compound 0.04 µM), 0.619; with BI-D1870 + Dasatinib (first compound 0.1265 µM) it was 0.378; with BI-D1870 + Dasatinib (first compound 0.4 µM) it was 0.577. Moreover, the relative viability in the experiment with BI-D1870 + Dasatinib (first compound 1.265 µM) turned out to be 0.617; with BI-D1870 + Dasatinib (first compound 4 µM), 0.426.
